{"source": "patent US11098073B2", "about": "“Triphenylphosphonium-tethered tetracyclines for use in treating cancer” (Oxford University Innovation Limited, priority 2017, dated 2021)", "note": "Structures can show the parent of a compound that is named as a salt."}
{"test_system": "MDA-231 cancer cells", "assay": "Inhibition of proliferation assay: cell confluence (IncuCyte live cell imaging)", "type": "cell-based", "details": "compound tested at 10 μM, images every 3 h over 4-5 d, relative confluence normalised to time zero", "from_the_text": "Inhibition of Proliferation Assay\nThe confluence value is a surrogate for cell proliferation and growth. The value is expressed as a percent confluence, which represents the fraction of culture dish-surface that is occupied by cells. As the number of cells in the dish increases over time due to proliferation, so will their coverage of that surface increase. Expansion of the cell population on the cell culture-dish surface and confluence have mostly a linear relationship until the cells on the plate surface begin to reach saturation or maximum density.\nConfluence is determined based on image analysis. Image based software can identify objects in the image field base on changes to pixel density in a grey scale image. The software can then assign a mask to those pixels within the object. Objects can be ‘gated’ out based on size and shape. To determine cell confluence, images of cells are first masked as objects. The surface area of the image that is masked is measured and compared to the total surface area of the culture dish surface to obtain a percent confluence.\nMDA-231 cancer cells were obtained from ATCC. Cells were cultured in Dulbecco's Modified Eagle Medium (DMEM) supplemented with 10% Fetal Bovine Serum (FBS), 2 mM Glutamax, 1 mM Non Essential Amino Acid (NEAA) solution and 1 mM sodium pyruvate. […] Final DMSO concentrations were […]. Images were acquired with an IncuCyte Live Cell Imaging microscopy (Essen Bioscience) at every 3 h under cell culture conditions with 10 OX objective over 4-5 d. Cell confluence was calculated from one field of view per well using the IncuCyte in-built algorithm. Relative confluence values were obtained by normalising each value to the time zero value in each sample.", "units": {"% Confluence": "%"}}
{"smiles": "C[C@H]1c2ccc(NC(=O)CCNC(=O)CCCC[P+](c3ccccc3)(c3ccccc3)c3ccccc3)c(O)c2C(=O)C2=C(O)[C@]3(O)C(=O)C(C(N)=O)=C(O)[C@@H](N(C)C)[C@@H]3[C@@H](O)[C@@H]21", "note": "[Example 12, {4-[(2-{[(5R,5aR,6S,6aR,7S,10aS)-9-carbamoyl-7-(dimethylamino)-1,6,8,10a,11-pentahydroxy-5-methyl-10,12-dioxo-5,5a,6,6a,7,10,10a,12-octahydrotetracen-2-yl]carbamoyl}ethyl)carbamoyl]butyl}triphenylphosphonium trifluoroacetate]", "% Confluence": 91.9}
{"smiles": "C[C@H]1c2ccc(CNC(=O)CCCCCCC[P+](c3ccccc3)(c3ccccc3)c3ccccc3)c(O)c2C(=O)C2=C(O)[C@]3(O)C(=O)C(C(N)=O)=C(O)[C@@H](N(C)C)[C@@H]3[C@@H](O)[C@@H]21", "note": "[Example 17, trifluoroacetate]", "% Confluence": 79.4}
{"smiles": "C[C@H]1c2c(NC(=O)CCCCCCC[P+](c3ccccc3)(c3ccccc3)c3ccccc3)ccc(O)c2C(=O)C2=C(O)[C@]3(O)C(=O)C(C(N)=O)=C(O)[C@@H](N(C)C)[C@@H]3[C@@H](O)[C@@H]21", "note": "[Example 4, (7-{[(6aS,10S,10aR,11S,11aR,12R)-8-carbamoyl-10-(dimethylamino)-4,6,6a,9,11-pentahydroxy-12-methyl-5,7-dioxo-5,6a,7,10,10a,11,11a,12-octahydrotetracen-1-yl]carbamoyl}heptyl)triphenylphosphonium trifluoroacetate]", "% Confluence": 124.3}
{"smiles": "C[C@H]1c2ccc(NC(=O)CCCCCC[P+](c3ccccc3)(c3ccccc3)c3ccccc3)c(O)c2C(=O)C2=C(O)[C@]3(O)C(=O)C(C(N)=O)=C(O)[C@@H](N(C)C)[C@@H]3[C@@H](O)[C@@H]21.[Cl-]", "note": "[Example 19]", "% Confluence": 22.4}
